From US20220332845A1, “INHIBITION OF MTHFD1L FOR USE IN HYPERTROPHIC HEART DISEASE AND HEART FAILURE” (GENOME BIOLOGICS UG, priority 2019, published 2022) come the findings set out here.

Test [1] concerns primary neonatal rat cardiomyocytes (NRC). Nature of the test: Immunofluorescent staining of NRCs: multinucleation and cell size. In kind it is cell-based. Conditions: 10 μM ADP for 3 days. The procedure:
Isolation of primary neonatal rat cardiomyocytes (NRC) was performed using the neonatal heart dissociation kit (130-098-373, Miltenyi Biotec) as recommended by the manufacturer. Isolated cells were pre-plated with plating medium (65% DMEM, 16% M199, 10% fetal calf serum (FCS), 5% horse serum (HS), 2% glutamine and 1% penicillin/streptomycin (P/S)) for 1.5 h to deplete of the fibroblasts. NRC were plated on Type-I Collagen-coated (Advanced Biomatrix) 3 cm dishes (Nunc) in plating medium. The plating medium was changed to maintenance medium (88% DMEM, 9% M199, 1% HS, 2% glutamine and 1% P/S) 24 h after isolation of NRCs. Cardiomyocytes were treated with 3,3′,5-Triiodo-L-thyronine (T3, T5516, Sigma Aldrich) for 6 days at a concentration of 15 nM. NRCs were stimulated with exogenous ADP (A2754, Sigma Aldrich) at a concentration of 10 μM for 3 days. NRC were randomly chosen for treatment the day after isolation.
Immunofluorescent stainings were performed as described previously (Krishnan et al. Cell Metab 9, 512-524 (2009)). After fixation of NRCs with 4% paraformaldehyde (PFA)/PBS, the cells were permeabilized and incubated with primary antibodies against sarcomeric α-actinin (A7811, Sigma Aldrich) and phospho-Histone H3 (Ser10) (05-817, Cell Signaling) diluted in 2% (v/v) HS for 1 h at RT. […] Cell size was quantified blinded using the software Image J (version 1.47).

Test [2] deals with NRCs. The experiment in a line: ADP/ATP ratio in NRCs. It is filed as cell-based, rat. Conditions: T3 15 nM for 6 days, scrLNA or miR27b-5p LNAs.
Protocol: Mitochondria were isolated using the Mitochondria Isolation Kit for Cultured Cells (Abcam). Briefly, 1.2×10^6 NRCs were seeded per 6 cm dish and cells collected by scraping. After a freeze-thaw step to weaken the cell membrane, the cells were resuspended to a protein concentration of 5 mg/mL in Reagent A and incubated for 10 min on ice. The cells were homogenized with 30 strokes in a Dounce Homogenizer and centrifuged at 1000 g for 10 min at 4° C. The pellet was resuspended in the same volume of Reagent B than was used for Reagent A and rupturing and centrifugation was repeated. The supernatants after the two centrifugation steps were combined and centrifuged at 12000 g for 15 min at 4° C. Pellet was resuspended in 80 μL Reagent C supplemented with protease inhibitors and stored at −80° C. Mitochondrial ADP:ATP quantification was performed as recommended by the manufacturer (Abcam). 4×10^5 NRCs were seeded per well in a 3 cm dish and the assay was performed using the EnzyLight ADP/ATP Ratio Assay Kit (ELDT-100, Bioassay Systems) as recommended by the manufacturer. Luminescence was measured on a FLUOstar Omega plate reader (BMG).
Test [3] concerns NRCs. The experiment in a line: [3H]leucine incorporation assay in NRCs. It is filed as cell-based, rat. Particulars: T3 15 nM for 6 days, scrLNA or miR27b-5p LNAs. The procedure:
[^3H]leucine incorporation assay was used to measure de novo protein synthesis as an indirect readout for cell growth (Fukuzawa et al. Hypertension 35, 1191-1196 (2000).). 4×10^5 cells were seeded per 3 cm dish. After 3 days, cells were serum-starved overnight. Next day, cells were cultured in leucine-free medium for 4h, followed by culturing in maintenance medium containing labeled […] (specific activity 30-60 Ci/mmol, ART0233, American Radiolabelled Chemicals) at a concentration of 0.5 μCi/mL for 20 h. The next day, cells were washed with PBS, trypsinized and the radioactivity was measured for 5 min in the liquid scintillation analyzer Tri-Carb 2800TR (Perkin Elmer). Cells were counted blinded with a Neubauer chamber after trypsinization and scintillation counts were normalized to absolute cell number.

The structures appear in SMILES notation.

Take `Nc1ncnc2c1ncn2[C@@H]1O[C@H](COP(=O)(O)OP(=O)(O)O)[C@@H](O)[C@H]1O` [ADP]: in test [1], the “cardiomyocyte hypertrophy by cell size quantification” value was “cardiomyocyte hypertrophy” and the “multinucleation (percentage of multinucleated cells)” value is “sufficiency to induce multinucleation”.

As to `N[C@@H](Cc1cc(I)c(Oc2ccc(O)c(I)c2)c(I)c1)C(=O)O` [T3, 3,3′,5-Triiodo-L-thyronine], the ADP/ATP entry in the test with NRCs [2] is reported as “increase”. In the test on NRCs [3], the “hypertrophy ([3H]leucine incorporation)” value was “highly miR27b-dependent hypertrophy”.
